Tests used:
[1] = biological target: T1, Estrogen receptor (Homo sapiens) (UniProt P03372); assay: Displacement of [3H]estradiol from human full-length ERalpha after 18 to 24 hrs by relative binding affinity/competitive radiometric binding assay relative to estradiol; details: concentration not given here
T1 sequence (whole entry): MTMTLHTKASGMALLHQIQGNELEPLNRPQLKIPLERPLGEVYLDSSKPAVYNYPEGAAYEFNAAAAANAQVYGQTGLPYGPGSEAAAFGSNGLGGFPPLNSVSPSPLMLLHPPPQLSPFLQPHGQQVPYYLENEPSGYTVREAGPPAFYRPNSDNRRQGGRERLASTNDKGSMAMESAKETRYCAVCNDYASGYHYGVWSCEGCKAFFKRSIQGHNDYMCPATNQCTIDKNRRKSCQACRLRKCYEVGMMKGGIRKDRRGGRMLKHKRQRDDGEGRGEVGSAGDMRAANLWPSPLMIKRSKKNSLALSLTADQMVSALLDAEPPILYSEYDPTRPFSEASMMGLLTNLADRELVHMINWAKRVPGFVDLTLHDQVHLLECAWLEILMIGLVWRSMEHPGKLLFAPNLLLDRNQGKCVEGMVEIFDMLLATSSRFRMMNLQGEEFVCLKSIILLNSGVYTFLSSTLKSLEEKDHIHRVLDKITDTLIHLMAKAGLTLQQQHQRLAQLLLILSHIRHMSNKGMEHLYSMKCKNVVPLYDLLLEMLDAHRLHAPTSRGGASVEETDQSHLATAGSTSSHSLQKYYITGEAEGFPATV

Estrogen receptor beta [2] = biological target: T2, Estrogen receptor beta (Homo sapiens, UniProt Q92731); assay: Displacement of [3H]estradiol from human full-length ERbeta after 18 to 24 hrs by relative binding affinity/competitive radiometric binding assay relative to estradiol; details: concentration not given here
T2 sequence (Q92731 whole entry): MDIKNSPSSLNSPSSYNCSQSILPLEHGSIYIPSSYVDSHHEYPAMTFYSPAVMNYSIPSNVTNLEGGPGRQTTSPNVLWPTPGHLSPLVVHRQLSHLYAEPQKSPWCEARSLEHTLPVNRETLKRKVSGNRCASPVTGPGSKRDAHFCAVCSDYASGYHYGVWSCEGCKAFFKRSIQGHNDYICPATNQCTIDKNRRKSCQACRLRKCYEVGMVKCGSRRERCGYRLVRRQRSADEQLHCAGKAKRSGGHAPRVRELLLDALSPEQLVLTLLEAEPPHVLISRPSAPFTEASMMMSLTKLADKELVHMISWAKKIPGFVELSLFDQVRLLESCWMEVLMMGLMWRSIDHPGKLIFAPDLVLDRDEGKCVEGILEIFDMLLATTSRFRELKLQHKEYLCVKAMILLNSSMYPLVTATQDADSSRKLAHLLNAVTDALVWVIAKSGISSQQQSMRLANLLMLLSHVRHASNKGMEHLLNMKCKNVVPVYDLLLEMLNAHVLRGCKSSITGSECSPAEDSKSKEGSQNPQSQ

Estrogen receptor [3] = biological target: T3, Estrogen receptor (Homo sapiens, UniProt P03372)
T3 sequence (P03372 whole entry): T1 sequence (whole entry)
Description: Agonist activity at human ERalpha expressed in human HEC1 cells assessed as transcriptional activation after 24 hrs by ERE-luciferase reporter gene transfection assay

Estrogen receptor beta [4] = biological target: T2, Estrogen receptor beta
Description: Agonist activity at human ERbeta in human MCF7 cells assessed as otubain 2 endogenous genes activation after 24 hrs by qPCR

Estrogen receptor beta [5] = biological target: T2, Estrogen receptor beta; remark: listed apart in the source
Description: Agonist activity at human ERbeta expressed in human HEC1 cells assessed as transcriptional activation after 24 hrs by ERE-luciferase reporter gene transfection assay

Estrogen receptor [6] = biological target: T3, Estrogen receptor; remark: listed apart in the source
Description: Agonist activity at human ERalpha in human MCF7 cells assessed as progesterone receptor endogenous genes activation after 24 hrs by qPCR

Compound | inhibition [1] | inhibition (Estrogen receptor beta [2]) | EC50 (Estrogen receptor [3]) | EC50 (Estrogen receptor beta [4]) | EC50 (Estrogen receptor beta [5]) | EC50 (Estrogen receptor [6])
CC/C(=N\O)c1cc(-c2ccc(O)cc2)ccc1O | 3% | 46% |  |  |  | 
COc1ccc(-c2ccc(O)c(/C(C)=N/O)c2)cc1C | < 0.005% | < 0.005% |  |  |  | 
CC/C(=N\O)c1cc(-c2ccc(O)c(F)c2)ccc1O | 1.9% | 49% |  |  |  | 
C/C(=N\O)c1cc(-c2ccc(O)c(F)c2)ccc1O | 0.16% | 12% | 194 nM | 35 nM | 14.7 nM | 2090 nM
O/N=C(/c1cc(-c2ccc(O)cc2)ccc1O)C(F)(F)F | 0.036% | 0.76% |  |  |  | 
C/C(=N\O)c1cc(-c2ccc(O)cc2)ccc1O | 0.54% | 46% | 29.3 nM | 12.7 nM | 3.97 nM | 83.8 nM

Now from value to compound, other results behind:

inhibition [1] | inhibition (Estrogen receptor beta [2]) | Compound | EC50 (Estrogen receptor [3]) | EC50 (Estrogen receptor beta [4]) | EC50 (Estrogen receptor beta [5]) | EC50 (Estrogen receptor [6])
< 0.005% | 0.015% | C/C(=N\O)c1cc(-c2ccc(F)cc2)ccc1O |  |  |  | 
< 0.005% | 0.011% | COc1ccc(-c2ccc(O)c(/C(C)=N/O)c2)cc1 |  |  |  | 
< 0.005% | < 0.005% | COc1ccc(-c2ccc(O)c(/C(C)=N/O)c2)cc1F |  |  |  | 
0.033% | 1.1% | C/C(=N\O)c1cc(-c2ccc(O)c(Cl)c2)ccc1O |  |  |  | 
< 0.005% | < 0.005% | COc1ccc(-c2ccc(O)c(/C(C)=N/O)c2)cc1Cl |  |  |  | 
< 0.005% | 0.099% | C/C(=N\O)c1cc(-c2ccc(Cl)cc2)ccc1O |  |  |  | 
0.1% | 1.6% | C/C(=N\O)c1cc(-c2ccc(O)c(C)c2)ccc1O |  |  |  | 
